Laboratory results from patent publication US5626869A, “Pharmaceutical composition containing a defined lipid system” (Pharmacia & Upjohn AB, priority 1992, dated 1997).

System: FXa
Settings: in vivo
Experimental: New Zealand white rabbits of both sexes, weighing 2.5-3.5 kg were used in all experiments. […] The rabbits were anaesthetized with Mebumal, 20 mg/kg. The anaesthesia was subsequently maintained as required. The animals were shaved and a medial laparotomy performed. The test compounds were then injected directly into the duodenum, after which the peritoneal cavity was closed. Rectal administration was performed by means of a syringe coupled to a plastic tube designed for use in the rectum of rabbits. The dosage was checked by weighing of the syringe and connecting tubings before and after administering the test compounds.
Blood samples (1 ml) were collected at 0.25, 0.5, 0.75, 1, 1.5, 2, 2.5, 3, 4, 5, 6, 7, 8, 9, and 10 hours with the aid of catheter inserted in the ear artery and mixed with sodium […] to a final concentration of 0.04M. The tubes were kept on ice until centrifuged at 800 g for 10 minutes. The anti-FXa activity in plasma was determined with an initial rate assay using bovine FXa (Kabi Pharmacia) and the chromogenic substrate S-2222.

Substance: heparin
- degree of absorption compared with Fragmin: significantly lower than that of Fragmin®
- rectal absorption when admixed with the lipid system: significantly increased
- anti-FXa activity detected in plasma (2 mg/kg): detectable levels of anti-FXa activity
- average absorption (rabbit, 2 mg/kg): 15.7%±8
